What was measured:
mouse DCs [1] = type: cell-based
mouse DCs [2] = type: cell-based; remark: listed apart in the source
[3] = test system: CD8+ OT-I T cells in C57B1/6 Ly5.1 mice; conditions: mouse, in vivo, sc

Substance | surface expression of CD80, CD86, CD40 and MHC class II, comparison of cyclic glucan structures (mouse DCs [1]) | TNF-alpha and IL-12 secretion, comparison of cyclic glucan structures (mouse DCs [2]) | OT-I T cell proliferation in the draining lymph node [3]
methyl-cyclodextrin [MβCD] | failed to significantly activate DC | none of the cytokines were secreted | 
Poly I/C |  |  | OT-I T cell proliferation
